# Laboratory results published in patent US20200288711A1, “Pyrimidin-4-Carbamate or Urea Derivatives As Herbicides” (Syngenta Participations AG, priority 2017, published 2020).
# Key:
# Type in all cases: in vivo
# [1] = system: Abutilon theophrasti (ABUTH); test: B2 post-emergence herbicidal activity; conditions: Test 2a, rate 1000 g/ha, evaluated after 13 days, score 0-5 (5=total damage, 0=no damage)
# Experimental: (§1) Seeds of a variety of test species were sown in standard soil in pots: Triticum aestivium (TRZAW), Avena fatua (AVEFA), Alopecurus myosuroides (ALOMY), Echinochloa crus-galli (ECHCG), Lolium perenne (LOLPE), Zea mays (ZEAMX), Abutilon theophrasti (ABUTH), Amaranthus retroflexus (AMARE) and Setaria faberi (SETFA). After 8 days cultivation (post-emergence) under controlled conditions in a glasshouse (at 24/16° C., day/night; 14 hours light; 65% humidity), the plants were sprayed with an aqueous spray solution derived from the formulation of the technical active ingredient in acetone/water (50:50) solution containing 0.5% Tween 20 (polyoxyethelyene sorbitan monolaurate, CAS RN 9005-64-5). The test plants were then grown in a glasshouse under controlled conditions (at 24/16° C., day/night; 14 hours light; 65% humidity) and watered twice daily. After 13 days, the test was evaluated (5=total damage to plant; 0=no damage to plant).
# [2] = system: Echinochloa crus-galli (ECHCG); test: B2 post-emergence herbicidal activity; set-up: key: 5=total damage to plant; 0=no damage to plant; conditions: Test 2a, rate 1000 g/ha, evaluated after 13 days, score 0-5 (5=total damage, 0=no damage)
# Experimental: as §1
# [3] = system: Amaranthus retroflexus (AMARE); test: B2 post-emergence herbicidal activity; set-up: key: 5=total damage to plant; 0=no damage to plant; conditions: Test 2a, rate 1000 g/ha, evaluated after 13 days, score 0-5 (5=total damage, 0=no damage)
# Experimental: as §1
# [4] = system: Setaria faberi (SETFA); test: B2 post-emergence herbicidal activity; set-up: key: 5=total damage to plant; 0=no damage to plant; conditions: Test 2a, rate 1000 g/ha, evaluated after 13 days, score 0-5 (5=total damage, 0=no damage)
# Experimental: as §1
# [5] = system: Zea mays (ZEAMX); test: B2 post-emergence herbicidal activity; set-up: key: 5=total damage to plant; 0=no damage to plant; conditions: Test 2a, rate 1000 g/ha, evaluated after 13 days, score 0-5 (5=total damage, 0=no damage)
# Experimental: as §1
# [6] = system: Lolium perenne (LOLPE); test: B2 post-emergence herbicidal activity; set-up: key: 5=total damage to plant; 0=no damage to plant; conditions: Test 2a, rate 1000 g/ha, evaluated after 13 days, score 0-5 (5=total damage, 0=no damage)
# Experimental: as §1
# [7] = system: Setaria faberi (SETFA); test: B1 pre-emergence herbicidal activity; conditions: Test 1a, rate 1000 g/ha, evaluated after 13 days, score 0-5 (5=total damage, 0=no damage)
# Experimental: as §1, with “After” for “After 8 days”, “for one day (pre-emergence)” for “(post-emergence)”
# [8] = system: Amaranthus retroflexus (AMARE); test: B1 pre-emergence herbicidal activity; set-up: key: 5=total damage to plant; 0=no damage to plant; conditions: Test 1a, rate 1000 g/ha, evaluated after 13 days, score 0-5 (5=total damage, 0=no damage)
# Experimental: as §1, with “After” for “After 8 days”, “for one day (pre-emergence)” for “(post-emergence)”
# [9] = system: Abutilon theophrasti (ABUTH); test: B1 pre-emergence herbicidal activity; set-up: key: 5=total damage to plant; 0=no damage to plant; conditions: Test 1a, rate 1000 g/ha, evaluated after 13 days, score 0-5 (5=total damage, 0=no damage)
# Experimental: as §1, with “After” for “After 8 days”, “for one day (pre-emergence)” for “(post-emergence)”
# [10] = system: Zea mays (ZEAMX); test: B1 pre-emergence herbicidal activity; set-up: key: 5=total damage to plant; 0=no damage to plant; conditions: Test 1a, rate 1000 g/ha, evaluated after 13 days, score 0-5 (5=total damage, 0=no damage)
# Experimental: as §1, with “After” for “After 8 days”, “for one day (pre-emergence)” for “(post-emergence)”
# [11] = system: Lolium perenne (LOLPE); test: B1 pre-emergence herbicidal activity; set-up: key: 5=total damage to plant; 0=no damage to plant; conditions: Test 1a, rate 1000 g/ha, evaluated after 13 days, score 0-5 (5=total damage, 0=no damage)
# Experimental: as §1, with “After” for “After 8 days”, “for one day (pre-emergence)” for “(post-emergence)”
# [12] = system: Echinochloa crus-galli (ECHCG); test: B1 pre-emergence herbicidal activity; conditions: Test 1a, rate 1000 g/ha, evaluated after 13 days, score 0-5 (5=total damage, 0=no damage)
# Experimental: as §1, with “After” for “After 8 days”, “for one day (pre-emergence)” for “(post-emergence)”
smiles,measurement,setting,value
"Cc1nc(-c2cncc(F)c2)ncc1N(C)C(=O)OC(C)(C)C [Compound E2, tert-butyl N-[2-(5-fluoro-3-pyridyl)-4-methyl-pyrimidin-5-yl]-N-methyl-carbamate]","Control of weed species after post-emergence application, ABUTH",[1],1
same,"Control of weed species after post-emergence application, ECHCG",[2],5
same,"Control of weed species after post-emergence application, AMARE",[3],0
same,"Control of weed species after post-emergence application, SETFA",[4],5
same,"Control of weed species after post-emergence application, ZEAMX",[5],5
same,"Control of weed species after post-emergence application, LOLPE",[6],2
same,"Control of weed species after pre-emergence application, SETFA",[7],4
same,"Control of weed species after pre-emergence application, AMARE",[8],0
same,"Control of weed species after pre-emergence application, ABUTH",[9],0
same,"Control of weed species after pre-emergence application, ZEAMX",[10],4
same,"Control of weed species after pre-emergence application, LOLPE",[11],0
same,"Control of weed species after pre-emergence application, ECHCG",[12],2
